1 compound from patent US20230242616A1, “CHEMOKINE-SELECTIVE CXCR4 ECTODOMAIN-DERIVED (POLY)PEPTIDE” (Ludwig-Maximilians-Universität München, priority 2020, published 2023) can be followed below.

pIC50: −log10 of the molar value.

Data set [1] deals with human monocytes. Description: 3D migration of monocytes elicited by CXCL12. The settings on record: 5-fold molar excess. Type of data set: cell-based. From the text: Isolation of human peripheral blood-derived monocytes. Human peripheral blood-derived monocytes were isolated as described^14. Briefly, blood was collected from healthy donors or buffy coat obtained from the blood bank of Munich University Hospital, mixed 1:1 with PBS, and PBMCs isolated by Ficoll-Paque Plus gradient (GE Healthcare). Monocytes were purified by negative depletion using the Monocyte Isolation Kit II (Miltenyi). Monocyte purity was verified by flow cytometry using an anti-CD14 antibody (Miltenyl) and was 95-98%. […] The isolation of PBMCs from donor blood was approved by the local ethics committee of LMU Munich. 3D migration of human peripheral blood-derived monocytes by time-lapse microscopy. The 3D-migration behavior of human monocytes was assessed by time-lapse microscopy and individual cell tracking using the 3D chemotaxis μ-Slide system from Ibidi GmbH (Munich, Germany), adapting the established Ibidi dendritic cell protocol for human monocytes. […] Cell motility was monitored performing time-lapse imaging every 1 min at 37° C. for 2 h using a Leica inverted DMi8-Life Cell Imaging System equipped with a DMC2900 Digital Microscope Camera with CMOS sensor and live cell-imaging software (Leica Microsystems, Wetzlar, Germany). Images were imported as stacks to ImageJ software and analyzed with the manual tracking and chemotaxis/migration tools (Ibidi GmbH).

Data set [2] addresses T1, human CXCR4 (CXCL12/CXCR4) (Homo sapiens, UniProt P48061).
T1 construct: expressed in transfected cells; host or cells: S. cerevisiae strain CY12946
The data set is described as follows: CXCR4-specific signaling in yeast (lacZ reporter), CXCL12-triggered. It counts as cell-based. As to conditions: 2 μM CXCL12.
Description: CXCR4-specific signaling in a yeast-based cell system. […] Briefly, yeast transformants stably expressing human CXCR4 were grown overnight at 30° C. in yeast nitrogen base selective medium (Formedium, UK). Cells were diluted to an OD600 of 0.2 and grown to an OD600 of 0.3-0.6. […] OD600 was measured and activation of CXCR4 signaling quantified by β-galactosidase activity using a commercial BetaGlo Kit (Promega, Mannheim, Germany).

The target in data set [3] is mouse MIF (Mus musculus, UniProt P34884). Description: Dot blot with TAMRA-msR4M-L1, human versus mouse MIF. It counts as binding. As for the experimental part:
Dot blot. […] Non-specific binding was blocked with Tris-buffered saline (TBS), pH 7.4, containing 0.1% Tween-20 (TBS-T) and 1% BSA. […] Fluorescence intensities were measured at 600 nm using an Odyssey® Fc imager (LICOR Biosciences, Bad Homburg, Germany). The total intensity of each spot was automatically corrected by the individual background signal.

The test system of data set [4] is human cardiomyocytes (HCM), pAMPK. The data set is described as follows: MIF-triggered AMPK signaling in cardiomyocytes (MIF/CD74). It counts as cell-based. As to conditions: 16 nM MIF; 1- and 5-fold excess. The procedure: CD74 signaling in human cardiomyocytes. Before stimulation, medium was replaced by fresh myocyte basal medium containing 0.05% FCS and HCMs rested for 16 h. Surface CD74 expression on HCMs was verified by flow cytometry (FITC-conjugated anti-human CD74, FITC-IgG2 (isotype control) (BD Pharmingen), 1 h/4° C. in the dark, BD FACSVerse™ flow cytometer, FlowJo software). […] After treatment, cells were lysed and subjected to SDS-PAGE/Western blotting. […] Anti-rabbit horseradish peroxidase (HRP)-conjugated antibody (1:10000, GE Healthcare, Freiburg, Germany) was used for development and signals quantitated by chemiluminescence using an Odyssey® Fc imager.

Data set [5] concerns Apoe−/− mice on HFD. The data set is described as follows: Cytokine array on plasma of treated mice. It counts as in vivo, mouse. As to conditions: reductions for IFN-γ, IL-1α, IL-16, TNF-α, CXCL13/BLC. The procedure: Cytokine array. Cytokine/chemokine profiling was performed from plasma samples of msR4M-L1-versus vehicle-treated Apoe^−/− mice using mouse cytokine array panel A (R&D Systems, ARY006) according to the manufacturer's instructions. Plasma samples were diluted (1:10) in array buffer; incubated with antibody detection cocktail for 1 h at RT, exposed to the blocked membranes (overnight, 4° C.), membranes washed and incubated with streptavidin-HRP conjugate working solution (30 min, RT). Membranes were developed with Chemi-Reagent Mix and analyzed by Odyssey® Fc imager. The average signal (pixel density) of duplicate spots was quantified by ImageJ.

A short description of data set [6]: Blood cell counts, lipid levels and body weight of treated mice. Type of data set: in vivo, mouse. From the text:
Blood cell counts, triglycerides and cholesterol levels. […] APC-conjugated anti-CD19, FITC-conjugated anti-CD3.

Data set [7] relates to human monocyte-derived macrophages. The settings on record: read-out: IC50 of MIF-triggered Dil-oxLDL uptake; lower threshold of effect size roughly 50%.

T1 sequence (P48061 22-89 limits assumed): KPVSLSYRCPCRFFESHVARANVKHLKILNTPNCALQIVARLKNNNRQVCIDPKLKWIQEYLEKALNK

The pIC50 is the IC50 on a negative log10 scale, so that one unit is a factor of ten. For the compound `CC[C@H](C)[C@H](NC(=O)[C@H](Cc1ccc(O)cc1)NC(=O)[C@H](CCCNC(=N)N)NC(=O)[C@H](CC(=O)O)NC(=O)CCCCCCCCCCCNC(=O)CCCCCNC(=O)[C@H](CCCCN)NC(=O)[C@H](CS)NC(=O)[C@H](CC(C)C)NC(=O)[C@H](Cc1ccccc1)NC(=O)[C@H](CC(N)=O)NC(=O)CNC(=O)[C@H](Cc1ccccc1)NC(=O)[C@H](Cc1ccc(O)cc1)NC(=O)[C@H](Cc1c[nH]c2ccccc12)NC(=O)[C@H](CC(N)=O)NC(=O)[C@H](C)NC(=O)[C@@H](NC(=O)[C@H](C)NC(=O)[C@@H](N)CC(=O)O)C(C)C)C(=O)N[C@@H](CS)C(=O)N[C@@H](CC(=O)O)C(=O)N[C@@H](CCCNC(=N)N)C(=O)N[C@@H](Cc1ccccc1)C(=O)N[C@@H](Cc1ccc(O)cc1)C(=O)N1CCC[C@H]1C(=O)N[C@@H](CC(N)=O)C(=O)N[C@@H](CC(=O)O)C(=O)N[C@@H](CC(C)C)C(=O)N[C@@H](Cc1c[nH]c2ccccc12)C(=O)N[C@H](C(N)=O)C(C)C` [msR4M-L1], in data set [1], the “effect on CXCL12-induced cell motility” value is “remained unaffected”. Moreover, the “effect on CXCL12/CXCR4-elicited signaling” value in data set [2] was “remained unaffected”. Further, in data set [3], the “binding to human versus mouse MIF on dot blot” value is “binds equally well to human and mouse MIF”. Moreover, the “effect on MIF-upregulated pAMPK levels” value in data set [4] is on record as “not attenuated”. Besides, the “circulating inflammatory cytokine levels” value in data set [5] is “marked reduction”. In data set [6] (Apoe−/− mice, HFD 4.5 weeks), this compound yielded a Leukocytes of 4632 ± 286 per μL, a Lymphocytes of 2347 ± 50 per μL, a Monocytes of 552 ± 51 per μL and a Neutrophils of 1897 ± 46 per μL. In data set [6] (Apoe−/− mice, HFD 4.5 weeks), this compound registered a Triglycerides of 156.7 ± 3.8 mg/dL and a Weight of 22.3 ± 0.2 g. Moreover, the Cholesterol in data set [6] (Apoe−/− mice, HFD 4.5 weeks, means ± SD) is 647.4 ± 19.2 mg/dL. In data set [6] (mouse, in vivo), the “effect on body weight, plasma total cholesterol, triglyceride levels, blood leukocyte counts” value is given as “did not observe any effect”. Also, the negative-log IC50 (pIC50) in data set [7] was approximately 7.00.
